Laboratory results from US12616753B2, “HSP70 inhibitors and methods of using same” (THE WISTAR INSTITUTE, priority 2020, dated 2026).

What was measured:
CCD 841 CoN cells = assay: Trypan Blue exclusion viability assay, normal colon epithelial cells; type: cell-based; settings: 10 μM, 48 hours
MC38 and CT26 = assay: Alamar Blue cell viability assay, mouse CRC cell lines; type: cell-based; settings: 72 hours
Procedure: FIGS. 5A-5F show AP-4-139B is efficacious against CRC in an immunocompetent model, and causes immune cell recruitment. FIGS. 5A-5B: Mouse CRC cell lines, MC38 (FIG. 5A) and CT26 (FIG. 5B), were plated at a density of 1,000 cells per well in 96-well plates. The next day, cells were treated with the indicated inhibitors for 72 hours. Cells were then subjected to the Alamar Blue cell viability assays. Shown are representative IC50 values of an average of six technical replicates and two biological replicates. FIG. 5C: Mouse CRC cell lines MC38 and CT26 were treated with 10 μM AP-4-139B for 24 or 48 hours and immunoblotted for HSP70, p53, AKT, Cleaved Lamin A (CLA), Cleaved Caspase 3, MRPS14, and GAPDH (loading control). The doublet detected for HSP70 is seen in other murine cell lines, and may represent a degradation product or post-translational modification. FIG. 5D: 1×10^6 MC38 cells were injected subcutaneously into the right flank of 6-8 week old male C57Bl/6 mice. Once tumors reached an approximate volume of 50 mm^3, mice were separated randomly into two groups: vehicle vs. AP-4-139B. Mice were treated with 10 mg/kg AP-4-139B every 48 hours. All mice were euthanized 20 days after the start of treatment. Tumor volumes were recorded using digital calipers and using the formula v=length×width^2×0.52. *** p<0.001. n=15 mice per group.

MC38 tumors = assay: Flow cytometric immunophenotyping of MC38 tumors; type: in vivo, mouse; settings: 10 mg/kg every 48 hours, 20 days
Procedure: FIG. 6A: 1×10^6 MC38 cells were injected subcutaneously into the right flank of 6-8-week-old male C57Bl/6 mice. Once tumors reached an approximate volume of 100 mm^3, mice were treated with AP-4-139B (10 mg/kg) every 48 hours. 20 days after the start of treatment, tumors were excised, weighed, minced and digested. Tumor-infiltrating and splenic conventional CD4 (cCD4) (Live CD45^+ DUMP^− CD3^+CD4^+Foxp3^−), Tregs (Live CD45^+ DUMP^− CD3^+CD4^+Foxp3^+), CD8 (Live CD45^+ DUMP^− CD3^+CD8^+) T-cells, and Dendritic Cells (Live CD45^+ DUMP^− CD3^−CD11c^+MHCII^+) numbers were assessed by flow cytometry. * p<0.05, n.s. not significant. n=8 mice per group. FIG. 6B: MC38 and HT-29 cells were treated with the indicated concentrations of AP-4-139B for either 8 or 24 hours; media was collected and subjected to WB for HMGB1. Data shown are representative of three technical replicates. FIG. 6C: MC38 and HT-29 cells were treated with the indicated concentrations of AP-4-139B for three hours and then assayed for extracellular ATP release. […]
Tumors were excised, weighed with an electronic scale, minced and digested in 5 mL HBSS containing 1 mg/ml Type 1 Collagenase from Clostridium histolyticum (Sigma-Aldrich) for 30 minutes at 37° C. […] Samples were analyzed using FACSymphony A3 (BD Biosciences) flow cytometer equipped with 5 lasers. Data were analyzed using FlowJo Version 10 and GraphPad Prism software.

MC38 cells = assay: Anti-tumor vaccination study in C57BL/6 mice; type: in vivo, mouse
Procedure: FIG. 25A: C57Bl/6 mice were injected with either PBS or AP-4-139B pre-treated MC38 cells into the left flank. 10 days later, the same mice were injected with untreated MC38 cells in the right flank. […] Log rank test p<0.0001. FIG. 25B: Tumor growth measured in mice in FIG. 25A over 25 days. n=15 mice per group. Wilcox rank-sum test p<0.0001.
For in vivo metastasis assays, 8-10 week old male C57Bl/6 mice were injected with 4×10^5 MC38 cells. Mice were then treated with either vehicle or 10 mg/kg AP-4-139B every 48 hours for 3 weeks. At the end of the study, mice were euthanized, lungs were harvested and fixed in formalin for analysis of lung tumor nodules by H&E. For anti-tumor vaccination studies, MC38 cells were treated with 10 μM AP-4-139B for 48 h, resulting in approximately 20% cell death (as assessed by Trypan Blue staining). 2×10^6 pre-treated MC38 cells or PBS was inoculated subcutaneously into the left flank of 8-10 week old male C57BL/6 mice. Ten days later, mice were challenged on the right flank with 5×10^5 live MC38 cells, and tumor growth and incidence were monitored 3 times per week. The absence of tumors was scored as an indication for efficient antitumor vaccination.

WM983B tumor xenografts = assay: WM983B melanoma xenograft in NSG mice; type: in vivo, mouse; settings: 12.5 mg/kg i.p. twice per week
Procedure: WM983B tumor xenografts were established in NSG mice. […] Tumors were collected at the end of the experiment and assessed for the level of the client protein MRPS14.
FIG. 18 comprises a series of images illustrating IHC of WM983B treated tumors using IgG negative control or antisera to MRPS14t.
AP-4-139B was tested as a single agent in a WM983B melanoma xenograph in mice. WM983B tumor xenografts were established in NSG mice. […] Tumors were collected at the end of the experiment and assessed for the level of the client protein MRPS14.

Structure (SMILES): c1ccc(-c2cn3nc(CCCCCC[P+](c4ccccc4)(c4ccccc4)c4ccccc4)sc3n2)cc1 [AP-4-139B, Triphenyl(6-(6-phenylimidazo[2,1-b][1,3,4]thiadiazol-2-yl)hexyl)phosphonium bromide]
- toxicity to normal colon epithelial cells (CCD 841 CoN cells): far less sensitive
- IC50s in murine CRC lines (in words) (MC38 and CT26): comparable to that of oxaliplatin
- abundance of immune cell types in spleens (MC38 tumors): no changes in abundance
- immune cell infiltrates (CD4+ T cell, CD8+ T cell, dendritic cells, Tregs) in tumors (MC38 tumors): significantly increased immune cell infiltrates
- tumor size in vaccine-treated mice (MC38 cells; over 25 days): markedly reduced compared with control
- mice that developed tumors on the right flank (MC38 cells; vaccinated with pre-treated MC38 cells, control 15 of 15): 3 of 15
- level of client protein MRPS14 in tumors (IHC) (WM983B tumor xenografts): lose mitochondrial protein MPS14
- tumor growth, WM983B xenograft (WM983B tumor xenografts): inhibit tumor growth
